# Like-named read-outs stand apart in the source and are kept apart here.
# Test system: G3BP1 NFT2
# Assay type: binding, human
# Conditions: library DMS-CoV, bait G3BP1 NFT2, prey N, listed as aa = residue placed at this position, column sums to 1
sequence,measurement,setting,value
APRITFGGPSDSTGSN T13M (APRITFGGPSDSMGSN),"DMS PSSM value, T (position 13)",peptide APRITFGGPSDSTGSN,0.06406
RNAPRITFGGPSDSTG G16V (RNAPRITFGGPSDSTV),"DMS PSSM value, G (position 16)",peptide RNAPRITFGGPSDSTG,0
APRITFGGPSDSTGSN P9M (APRITFGGMSDSTGSN),"DMS PSSM value, P (position 9)",peptide APRITFGGPSDSTGSN,0
RNAPRITFGGPSDSTG P4W (RNAWRITFGGPSDSTG),"DMS PSSM value, P (position 4)",peptide RNAPRITFGGPSDSTG,0
RNAPRITFGGPSDSTG G9T (RNAPRITFTGPSDSTG),"DMS PSSM value, G (position 9)",peptide RNAPRITFGGPSDSTG,0
APRITFGGPSDSTGSN G14T (APRITFGGPSDSTTSN),"DMS PSSM value, G (position 14)",peptide APRITFGGPSDSTGSN,0.007708
APRITFGGPSDSTGSN G8Y (APRITFGYPSDSTGSN),"DMS PSSM value, G (position 8)",peptide APRITFGGPSDSTGSN,0.02437
RNAPRITFGGPSDSTG P11W (RNAPRITFGGWSDSTG),"DMS PSSM value, P (position 11)",peptide RNAPRITFGGPSDSTG,0
APRITFGGPSDSTGSN G7N (APRITFNGPSDSTGSN),"DMS PSSM value, G (position 7)",peptide APRITFGGPSDSTGSN,0
RNAPRITFGGPSDSTG N2Q (RQAPRITFGGPSDSTG),"DMS PSSM value, N (position 2)",peptide RNAPRITFGGPSDSTG,0
APRITFGGPSDSTGSN F6T (APRITTGGPSDSTGSN),"DMS PSSM value, F (position 6)",peptide APRITFGGPSDSTGSN,0
APRITFGGPSDSTGSN S10V (APRITFGGPVDSTGSN),"DMS PSSM value, S (position 10)",peptide APRITFGGPSDSTGSN,0.01109
APRITFGGPSDSTGSN S15F (APRITFGGPSDSTGFN),"DMS PSSM value, S (position 15)",peptide APRITFGGPSDSTGSN,0.2174
RNAPRITFGGPSDSTG T7R (RNAPRIRFGGPSDSTG),"DMS PSSM value, T (position 7)",peptide RNAPRITFGGPSDSTG,0
RNAPRITFGGPSDSTG S14M (RNAPRITFGGPSDMTG),"DMS PSSM value, S (position 14)",peptide RNAPRITFGGPSDSTG,0.3095
RNAPRITFGGPSDSTG S12E (RNAPRITFGGPEDSTG),"DMS PSSM value, S (position 12)",peptide RNAPRITFGGPSDSTG,0.6084
APRITFGGPSDSTGSN D11F (APRITFGGPSFSTGSN),"DMS PSSM value, D (position 11)",peptide APRITFGGPSDSTGSN,0.001494
APRITFGGPSDSTGSN G14V (APRITFGGPSDSTVSN),"DMS PSSM value, G (position 14)",peptide APRITFGGPSDSTGSN,0.009945
RNAPRITFGGPSDSTG D13P (RNAPRITFGGPSPSTG),"DMS PSSM value, D (position 13)",peptide RNAPRITFGGPSDSTG,1
RNAPRITFGGPSDSTG N2G (RGAPRITFGGPSDSTG),"DMS PSSM value, N (position 2)",peptide RNAPRITFGGPSDSTG,0
APRITFGGPSDSTGSN F6H (APRITHGGPSDSTGSN),"DMS PSSM value, F (position 6)",peptide APRITFGGPSDSTGSN,0
RNAPRITFGGPSDSTG P11V (RNAPRITFGGVSDSTG),"DMS PSSM value, P (position 11)",peptide RNAPRITFGGPSDSTG,0
RNAPRITFGGPSDSTG I6T (RNAPRTTFGGPSDSTG),"DMS PSSM value, I (position 6)",peptide RNAPRITFGGPSDSTG,0
APRITFGGPSDSTGSN G8L (APRITFGLPSDSTGSN),"DMS PSSM value, G (position 8)",peptide APRITFGGPSDSTGSN,0.0001736
RNAPRITFGGPSDSTG P4K (RNAKRITFGGPSDSTG),"DMS PSSM value, P (position 4)",peptide RNAPRITFGGPSDSTG,0
APRITFGGPSDSTGSN R3I (APIITFGGPSDSTGSN),"DMS PSSM value, R (position 3)",peptide APRITFGGPSDSTGSN,0.2843
APRITFGGPSDSTGSN I4Y (APRYTFGGPSDSTGSN),"DMS PSSM value, I (position 4)",peptide APRITFGGPSDSTGSN,0
APRITFGGPSDSTGSN P9R (APRITFGGRSDSTGSN),"DMS PSSM value, P (position 9)",peptide APRITFGGPSDSTGSN,0
RNAPRITFGGPSDSTG A3D (RNDPRITFGGPSDSTG),"DMS PSSM value, A (position 3)",peptide RNAPRITFGGPSDSTG,0.1526
RNAPRITFGGPSDSTG A3N (RNNPRITFGGPSDSTG),"DMS PSSM value, A (position 3)",peptide RNAPRITFGGPSDSTG,0
RNAPRITFGGPSDSTG S14V (RNAPRITFGGPSDVTG),"DMS PSSM value, S (position 14)",peptide RNAPRITFGGPSDSTG,0
RNAPRITFGGPSDSTG G10S (RNAPRITFGSPSDSTG),"DMS PSSM value, G (position 10)",peptide RNAPRITFGGPSDSTG,0
APRITFGGPSDSTGSN T13K (APRITFGGPSDSKGSN),"DMS PSSM value, T (position 13)",peptide APRITFGGPSDSTGSN,0
APRITFGGPSDSTGSN T5P (APRIPFGGPSDSTGSN),"DMS PSSM value, T (position 5)",peptide APRITFGGPSDSTGSN,0
RNAPRITFGGPSDSTG P11Q (RNAPRITFGGQSDSTG),"DMS PSSM value, P (position 11)",peptide RNAPRITFGGPSDSTG,0
APRITFGGPSDSTGSN S12P (APRITFGGPSDPTGSN),"DMS PSSM value, S (position 12)",peptide APRITFGGPSDSTGSN,0
RNAPRITFGGPSDSTG I6M (RNAPRMTFGGPSDSTG),"DMS PSSM value, I (position 6)",peptide RNAPRITFGGPSDSTG,0
RNAPRITFGGPSDSTG A3K (RNKPRITFGGPSDSTG),"DMS PSSM value, A (position 3)",peptide RNAPRITFGGPSDSTG,0
APRITFGGPSDSTGSN T5S (APRISFGGPSDSTGSN),"DMS PSSM value, T (position 5)",peptide APRITFGGPSDSTGSN,0.002921
RNAPRITFGGPSDSTG S14T (RNAPRITFGGPSDTTG),"DMS PSSM value, S (position 14)",peptide RNAPRITFGGPSDSTG,0
RNAPRITFGGPSDSTG A3G (RNGPRITFGGPSDSTG),"DMS PSSM value, A (position 3)",peptide RNAPRITFGGPSDSTG,0.6104

# — publication PMC12102759 (Protein Science : A Publication of the Protein Society, 2025)
